This passage reports Ki and kon results from patent US5489604A, “2-saccharinylmethyl aryl and aryloxy acetates useful as proteolytic enzyme inhibitors and compositions and method of use thereof” (Sterling Winthrop, Inc., priority 1994, dated 1996).

This experiment addresses T1, human leukocyte elastase (HLE) (Homo sapiens, UniProt P08246).
T1 sequence (P08246 30-267): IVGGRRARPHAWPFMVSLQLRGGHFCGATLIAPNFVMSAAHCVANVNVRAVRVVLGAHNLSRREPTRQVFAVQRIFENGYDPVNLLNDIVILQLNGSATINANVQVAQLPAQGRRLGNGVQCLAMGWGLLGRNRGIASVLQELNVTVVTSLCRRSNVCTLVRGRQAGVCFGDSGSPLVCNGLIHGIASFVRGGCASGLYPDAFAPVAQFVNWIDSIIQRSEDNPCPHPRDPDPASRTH
The experiment can be described thus: inhibition of human leukocyte elastase (HLE): rate of inactivation kon and inhibition constant Ki* (koff/kon). The conditions noted are these: for Ki: not truly reversible, ratio of rate of reactivation to rate of inactivation of the enzyme, read-out: K*i (inhibition constant Ki * = koff /kon); for kon: rate of inactivation kon of enzymatic activity, values are Kon × 10^-3. The class given is biochemical. How it is done: Thus, instead of measuring a Ki, a Ki * is calculated which is defined as the ratio of the koff /kon, the rate of reactivation of the enzyme to the rate of inactivation of the enzyme. The values of koff and kon are measured and Ki * is then calculated.
The rate of inactivation, kon, of enzymatic activity was determined for the compounds tested by measuring the enzyme activity of an aliquot of the respective enzyme as a function of time after addition of the test compound. […] The rate of inactivation is then equal to [formula] where [I] is the concentration of the inhibiting compound.
The reactivation constant, koff, is similarly determined, and the inhibition constant, Ki *, is then calculated as […]

On to `CC(C)c1cccc2c1C(=O)N(COC(=O)C(C)(C)Oc1ccc(Cl)cc1)S2(=O)=O` [Example 1E], for which the Ki was determined as 0.6 nM and the kon turned out to be 38000 M⁻¹ s⁻¹.

As for `CC(C)(C(=O)OCN1C(=O)c2ccccc2S1(=O)=O)c1ccccc1` [Example 1A], the Ki is 18 nM and the kon came out at 3500 M⁻¹ s⁻¹.

On to `CC(C)c1cccc2c1C(=O)N(COC(=O)C(C)(C)Oc1ccccc1Cl)S2(=O)=O` [Example 1F], for which the Ki was determined as 0.8 nM and the kon was found to be 29000 M⁻¹ s⁻¹.

For `CC(C)c1cccc2c1C(=O)N(COC(=O)C(O)c1ccccc1)S2(=O)=O` (stereo not shown) [Example 1G], the Ki is 0.26 nM and the kon came to 88500 M⁻¹ s⁻¹.

As for `COc1cc(C(C)C)c2c(c1)S(=O)(=O)N(COC(=O)C(C)(O)c1ccccc1)C2=O` (stereo not shown) [Example 1J], the Ki was found to be 0.12 nM and the kon came out at 77700 M⁻¹ s⁻¹.

As to `COc1cc(C(C)C)c2c(c1)S(=O)(=O)N(COC(=O)[C@H](OC)c1ccccc1)C2=O` [Example 1I], the Ki is 0.08 nM and the kon was found to be 118000 M⁻¹ s⁻¹.

For `CC(C)(Oc1ccc(Cl)cc1)C(=O)OCN1C(=O)c2ccccc2S1(=O)=O` [Example 1B], the Ki turned out to be 14.5 nM and the kon amounted to 4000 M⁻¹ s⁻¹.

As to `COc1cc(C(C)C)c2c(c1)S(=O)(=O)N(COC(=O)[C@@H](OC)c1ccccc1)C2=O` [Example 1K], the Ki is 0.09 nM and the kon is 102000 M⁻¹ s⁻¹.

As for `COC(C(=O)OCN1C(=O)c2c(C(C)C)cccc2S1(=O)=O)c1ccccc1` (stereo not shown) [Example 1H], the Ki stood at 0.3 nM and the kon came out at 80000 M⁻¹ s⁻¹.

As to `CC(C)c1cccc2c1C(=O)N(COC(=O)C(C)(C)c1ccccc1)S2(=O)=O` [Example 1D], the Ki is 1 nM and the kon is 23000 M⁻¹ s⁻¹.

As to `CC(C)(Oc1ccccc1Cl)C(=O)OCN1C(=O)c2ccccc2S1(=O)=O` [Example 1C], the Ki turned out to be 14.4 nM and the kon amounted to 4100 M⁻¹ s⁻¹.

In general, kon refers to the rate constant with which the complex forms. High values mean fast association, low ones slow association.
